Measurements published in patent publication US20220378773A1, “METHODS FOR TREATING LEUKEMIA AND USE OF A LEUKEMIC STEM CELL SIGNATURE TO PREDICT CLINICAL SENSITIVITY TO THERAPIES” (CELGENE CORPORATION, priority 2019, published 2022).

Test system: AML graft (human CD45+CD33+ cells)
Experiment: AML xenograft efficacy, 2.5 mg/kg IP twice daily
Assay type: in vivo, NOD/SCID mice
Details: for In vivo Efficacy (% reduction) BM / In vivo Efficacy (% reduction) RF: AML cells vs vehicle; for Response: class by % reduction of AML cells in RF or BM
From the text: Preparation of Test Article for Dosing: For in vivo Compound D dosing, Compound D was formulated immediately prior to each dose following the protocol below.
Formulation: 5% NMP/45% polyethylene glycol (PEG) 400/50% Saline; NMP—Catalogue no. 69118 (new no. M79603-1L), Fluka; PEG400—Catalogue no. 81172-1L, Fluka; Saline—0.9% sodium chloride.
Preparation: Weigh the desired amount of compound in glass vial. Add NMP and vortex. Make sure that entire compound is wet. Add PEG400 and vortex until clear solution without particulates. Add saline slowly and mix thoroughly for about a minute with hand held homogenizer with disposable tip.
Compound Administration: Compound D is dosed via the intraperitoneal route. Vehicle and Compound D are dosed in a volume of 2.5 mL/kg for twice daily (BID) dosing (if testing once daily [QD] dosing, use a dose volume of 5 mL/kg). Recommend a twice daily protocol with a 3-hour separation between the doses.
Intrafemoral Transplantation: One day prior to transplantation, NOD/SCID mice were preconditioned by sublethally irradiating (275 cGy) followed by injection with anti-CD122 antibody (200 μg/mouse) to deplete residual host natural killer (NK) cells. On the day of transplantation, viably frozen AML bulk cells (see Section 6.2.1.2) were thawed, counted, and transplanted intrafemorally into the preconditioned mice at a dose of 5×10^6 cells/mouse in a total volume of 30 μL phosphate buffered saline.
Treatment and Assay Procedure: At Day 21 post AML transplantation, mice were randomly grouped and dosed with either Compound D at 2.5 mg/kg or vehicle (5% N-methyl-2-pyrrolidone [NMP]/45% polyethylene glycol [PEG] 400/50% saline), intraperitoneally twice daily in a dose volume of 50 μL for 4 weeks. All animals were euthanized at scheduled termination (1 day after the last treatment) and bone marrow was collected from the right femur (injected bone marrow) and the left femur and left and right tibia (non-injected bone marrow). Cells isolated from injected or non-injected bone marrow were analyzed by flow cytometry to assess AML engraftment, and were viably frozen for future secondary engraftment analysis.
Cells harvested from injected and non-injected bone marrow were stained with mouse anti human antibodies as indicated in Section 6.2.1.3. After staining, washed cells were run on an LSRII flow cytometer (BD, USA) with 10,000 to 20,000 events collected for each sample. Collected data were analyzed by FlowJo software (TreeStar, USA) to assess AML engraftment levels in different tissues as determined by the percentage of human CD45+CD33+ cells.
Immune-deficient NOD/SCID mice were sublethally irradiated (225cGy) and treated with anti-CD122 antibody to eradicate residual mouse NK cells the day before AML implantation. Primary AML cells from each patient were intrafemorally injected into the mouse right femur at the cell dose 5×10^6 per mouse, with 10 mice transplanted per sample. Compound D and vehicle treatment was initiated at day 21 post transplantation. Compound D was administered at 2.5 mg/kg, intraperitoneally (IP) twice a day at 3 hours apart for 4 weeks. Before each treatment, Compound D was freshly dissolved into the solution. Vehicle was the same solution without Compound D compound and given to the control-treated mice at same volume (50 μL/mouse) with the same therapeutic schedule as Compound D treatment. For each patient sample, each treated group had 5 mice.
After treatment finished, cells were harvested from both injected right femur (RF) and non-injected bone marrow (BM, including left femur, 2 tibias), and stained with human antibodies to assess the engraftment levels of AML. Antibodies used for staining included: Mouse anti-human CD45-APC, CD15-FITC, CD34-APC7, CD38-PC7 (BD Biosciences, USA), CD14-PE, CD33-PC5 (Beckman Coulter, USA), CD19-V450, CD19-AF700, CD11b-APC7, CD34-BV421 (BD Biosciences, USA), and propidium iodide (PI; Invitrogen, USA).

[1] = three samples with high LSC17 score

Structure (SMILES): O=C1CCC(N2Cc3cc(CNC(=O)C(F)(F)c4ccc(Cl)cc4)ccc3C2=O)C(=O)N1 (centres unmarked) [Compound D, 2-(4-chlorophenyl)-N-((2-(2,6-dioxopiperidin-3-yl)-1-oxoisoindolin-5-yl)methyl)-2,2-difluoroacetamide]
- response of samples with low LSC17 scores (7 of the low LSC17 samples, more than 50% reduction): responded very well
- human CD45+ leukemia graft in RF and BM (AML 100348 (low LSC17)): significant response
- paralyzation or death (AML Patient 90668, 5 million cells per mouse): did not rescue these mice from paralyzation or death
- number of high LSC17 samples with more than 80% leukemia reduction, BM (BM): 17
- number of samples with 50 to 75% reduction (group 2), BM (BM): 6
- number of samples with >80% reduction (group 1), BM (BM): 14
- In vivo Efficacy (% reduction) BM (Patient 598): 95%
- In vivo Efficacy (% reduction) RF (Patient 598): 46%
- Response (Patient 598): R (R = >60%)
- In vivo Efficacy (% reduction) BM (Patient 90191): −250%
- In vivo Efficacy (% reduction) RF (Patient 90191): −21%
- Response (Patient 90191): NR (NR = <30%)
- In vivo Efficacy (% reduction) BM (Patient 100348): 90%
- In vivo Efficacy (% reduction) RF (Patient 100348): 86%
- Response (Patient 100348): R (R = >60%)
- In vivo Efficacy (% reduction) BM (Patient 110484): 96%
- In vivo Efficacy (% reduction) RF (Patient 110484): 73%
- Response (Patient 110484): R (R = >60%)
- In vivo Efficacy (% reduction) BM (Patient 110500): 67%
- In vivo Efficacy (% reduction) RF (Patient 110500): 72%
- Response (Patient 110500): R (R = >60%)
- In Vivo Efficacy (Primary Mice) % AML cell reduction relative to Veh, BM (Patient 110625): 99.9%
- In Vivo Efficacy (Primary Mice) % AML cell reduction relative to Veh, RE (Patient 110625): 99.9%
- In vivo Efficacy (% reduction) BM (Patient 120791): 98%
- In vivo Efficacy (% reduction) RF (Patient 120791): 69%
- Response (Patient 120791): R (R = >60%)
- In vivo Efficacy (% reduction) BM (Patient 120846): 26%
- In vivo Efficacy (% reduction) RF (Patient 120846): 9%
- Response (Patient 120846): NR (NR = <30%)
- In vivo Efficacy (% reduction) BM (Patient 120858): 2%
- In vivo Efficacy (% reduction) RF (Patient 120858): 0%
- Response (Patient 120858): NR (NR = <30%)
- percent and number of CD34+ primitive cells (Patient 120860): not reduced
- numbers of AML cells, injected femur (Patient 120860 (low LSC17)): did not reduce the numbers of AML cells
- number of AML cells, non-injected BM (Patient 120860 (low LSC17), vs vehicle): significantly reduced
- In vivo Efficacy (% reduction) BM (Patient 120860): 20%
- In vivo Efficacy (% reduction) RF (Patient 120860): 1%
- Response (Patient 120860): NR (NR = <30%)
- In vivo Efficacy (% reduction) BM (Patient 120899): 67%
- In vivo Efficacy (% reduction) RF (Patient 120899): 13%
- Response (Patient 120899): R (R = >60%)
- In vivo Efficacy (% reduction) BM (Patient 121020): 52%
- In vivo Efficacy (% reduction) RF (Patient 121020): 42%
- Response (Patient 121020): PR (PR = 30%-60%)
- In Vivo Efficacy (Primary Mice) % AML cell reduction relative to Veh, BM (Patient 130311): 99.6%
- In Vivo Efficacy (Primary Mice) % AML cell reduction relative to Veh, RE (Patient 130311): 99.8%
- In vivo Efficacy (% reduction) BM (Patient 130578): 73%
- In vivo Efficacy (% reduction) RF (Patient 130578): 61%
- Response (Patient 130578): R (R = >60%)
- In vivo Efficacy (% reduction) BM (Patient 130695): 86%
- In vivo Efficacy (% reduction) RF (Patient 130695): 52%
- Response (Patient 130695): R (R = >60%)
- In vivo Efficacy (% reduction) BM (Patient 130712): 56%
- In vivo Efficacy (% reduction) RF (Patient 130712): 17%
- Response (Patient 130712): PR (PR = 30%-60%)
- In Vivo Efficacy (Primary Mice) % AML cell reduction relative to Veh, BM (Patient 130826): 98.1%
- In Vivo Efficacy (Primary Mice) % AML cell reduction relative to Veh, RE (Patient 130826): 95.0%
- In vivo Efficacy (% reduction) BM (Patient 130926): 85%
- In vivo Efficacy (% reduction) RF (Patient 130926): 70%
- Response (Patient 130926): R (R = >60%)
- In vivo Efficacy (% reduction) BM (Patient 140171): 28%
- In vivo Efficacy (% reduction) RF (Patient 140171): 4%
- Response (Patient 140171): NR (NR = <30%)
- In Vivo Efficacy (Primary Mice) % AML cell reduction relative to Veh, BM (Patient 150238): 98.7%
- In Vivo Efficacy (Primary Mice) % AML cell reduction relative to Veh, RE (Patient 150238): 95.2%
- number of high LSC17 samples with more than 80% leukemia reduction, RF (RF): 13
- number of samples with 50 to 75% reduction (group 2), RF (RF): 10
- number of samples with >80% reduction (group 1), RF (RF): Seventeen
- number of samples with less than 25% reduction (group 3), RF (RF): 9
- response, secondary and relapsed vs de novo AML (RF and BM): responses similar to the cells from de novo AML patients
- samples considered responders or partial-responders (RF and BM, all samples): 29 out of 35 samples
- AML samples with significant effect (Section 6.2.6, 4 weeks): significant effects on 4 out of 5 AML samples
- engrafted samples with significant and dramatic responses (Section 6.3, 31 patient samples tested): 24 out of 28
- responder samples (among 7 AML samples incl. 2 pilot samples): 5 samples were responders
- samples that did not respond at all, injected RF (group 3): 4 out of 9
- samples with no AML reduction, BM (group 3): 3 out of 6
- response, Flt3-ITD vs wild-type Flt3 in cytogenetically normal AML (mouse, in vivo): slightly less response to Compound D in injected RF but similar response in BM
- response, abnormal vs normal karyotypes (mouse, in vivo): better response
- AML cells in RF and BM [1]: completely eradicated to undetectable levels
- absolute numbers of primitive CD34+ cells [1]: very low and undetectable levels
